# Assay results as given in patent US8703800B2, “Nitrate and diazeniumdiolate derivatives of pioglitazone” (Cardiolynx AG, priority 2010, dated 2014).
# Like-named read-outs stand apart in the source and are kept apart here.
# Columns and labels:
# [1] = test system: rat aortic ring segments preconstricted with phenylephrine; assay: Isometric tension studies: vasodilation of preconstricted rat aortic ring segments; format: cell-based; settings: for EC50: read-out: pD2-value (vasodilatory potency) (converted)
# Procedure: Vasodilation of rat aortic ring segments preconstricted with phenylephrine, Example 2, Table 1. X-axis: relaxation in %; y-axis: log concentration (log M).
# For in vitro characterization of the new pioglitazone nitrate (1) of Example 1, vasodilatory potency was determined by isometric tension studies. According to a published procedure rat aortic ring segments were preconstricted by the alpha-receptor-agonist phenylephrine [Daiber, A. et al., Mol Pharmacol 66 (2004), 1372-1382; Wendt, M. et al., Free Radic Biol Med 39 (2005), 381-391; Munzel, T. et al., J Clin Invest 95 (1995), 187-194]. After reaching a stable preconstriction of vascular tone, the vessels were dose-dependently vasodilated until the final tone at the highest added concentration of the vasodilator was reached. The vasodilators were added at half-logarithmic concentrations starting at 10^−8 M (=10 nanomolar). Vasodilatory potency was compared creating a concentration-relaxation curve. The data are based on experiments with aorta from at least 6 rats on 3 different days.
# [2] = test system: isolated rat cardiac mitochondria; assay: ROS/RONS formation in isolated mitochondria (L-012 chemiluminescence); format: biochemical
# Excerpt: Reactive oxygen and nitrogen species formation in response to in vitro challenge of isolated rat cardiac mitochondria based on reaction of the chemiluminescence dye L-012 (a luminal analogue), Example 3, Table 2. X-axis: compounds tested with concentration [μM]; y-axis: photons n per 1 sec of emission of chemiluminescence light (ECL).
# Vascular oxidative stress is a well-known side effect of nitrate tolerance (an adverse condition that develops under chronic nitrate therapy). Therefore, the induction of reactive oxygen and nitrogen species formation in response to in vitro challenges with the test compounds was assessed in isolated mitochondria according to a published procedure [Daiber, A. et al., Mol Pharmacol 66 (2004), 1372-1382; Daiber, A. et al., Biochem Biophys Res Commun 338 (2005), 1865-1874; Daiber, A. et al., Mol Pharmacol 68 (2005), 579-588]. The assay is based on the reaction of the chemiluminescence dye L-012 (a luminol analogue) with reactive oxygen and nitrogen species (RONS, e.g. superoxide anion radicals, peroxynitrite anions or nitrogen dioxide radicals) and subsequent emission of chemiluminescence light (ECL). The signal is counted in photons/time (=counts/30s). The data are based on experiments with cardiac mitochondria from at least 6 rats on 3 different days.
# [3] = rat aortic rings preconstricted with phenylephrine
# [4] = rat aortic rings preconstricted with phenylephrine, concentration-relaxation curve
"EC50 [1, 4] [µM]","ROS formation, Mean ([2]; rat, 10 μM) [counts/1 s]","ROS formation, Mean ([2]; rat, 100 μM) [counts/1 s]","ROS formation, Mean ([2]; rat, 1000 μM) [counts/1 s]",Compound,"Isometric tension, relaxation (Mean ± SEM) ([1]; Log [M] −3.5) [%]","Isometric tension, relaxation (Mean ± SEM) ([1]; Log [M] −4) [%]","Isometric tension, relaxation (Mean ± SEM) ([1]; Log [M] −4.5) [%]","Isometric tension, relaxation (Mean ± SEM) ([1]; Log [M] −5) [%]","Isometric tension, relaxation (Mean ± SEM) ([1]; Log [M] −5.5) [%]","Isometric tension, relaxation (Mean ± SEM) ([1]; Log [M] −6) [%]","Isometric tension, relaxation (Mean ± SEM) ([1]; Log [M] −6.5) [%]","Isometric tension, relaxation (Mean ± SEM) ([1]; Log [M] −7) [%]","Isometric tension, relaxation (Mean ± SEM) ([1]; Log [M] −7.5) [%]","Isometric tension, relaxation (Mean ± SEM) ([1]; Log [M] −8) [%]","Vasodilatory potency, result in words [1, 3]","ROS formation, Mean ([2]; Conc. 10 μM, basal 627.7) [counts/1 s]","ROS formation, Mean ([2]; Conc. 100 μM, basal 627.7) [counts/1 s]","ROS formation, Mean ([2]; Conc. 1000 μM, basal 627.7) [counts/1 s]",further results
~316,563,874.5,801.7,CCc1ccc(CCOc2ccc(CC3SC(=O)NC3=O)cc2)nc1 (racemic) [Pioglitazone],55.47 ± 5.98,22.40 ± 3.34,11.19 ± 3.82,8.30 ± 3.49,5.63 ± 3.15,5.40 ± 2.88,4.14 ± 2.57,3.42 ± 1.68,2.92 ± 1.49,0,weak relaxing effects,–,–,–,–
–,–,–,–,O=[N+]([O-])OCC(CO[N+](=O)[O-])O[N+](=O)[O-] [Glycerol trinitrate],–,–,–,–,–,–,–,–,–,–,–,597.7,898.5,2762,–
–,–,–,–,"O=[N+]([O-])O[C@@H]1CO[C@H]2[C@@H]1OC[C@@H]2O [ISMN, Isosorbide-5-mononitrate]",64.17 ± 4.11,43.46 ± 3.28,16.76 ± 2.29,9.29 ± 2.23,5.47 ± 1.95,3.73 ± 1.39,3.86 ± 1.04,0,–,–,–,–,–,–,"Isometric tension, relaxation (Mean ± SEM) ([1]; Log [M] −2): 98.77 ± 0.75%; Isometric tension, relaxation (Mean ± SEM) ([1]; Log [M] −2.5): 94.91 ± 1.28%; Isometric tension, relaxation (Mean ± SEM) ([1]; Log [M] −3): 82.81 ± 3.45%"
–,–,–,–,"O=C(NCCO[N+](=O)[O-])OCCl [Linker 2, chloromethyl N-2-nitrooxyethylcarbamate]",96.18 ± 2.20,91.00 ± 5.36,86.66 ± 6.04,80.97 ± 6.47,68.37 ± 6.89,51.19 ± 6.35,30.73 ± 5.12,16.85 ± 3.29,8.25 ± 2.09,0,–,622.5,674.7,1395.8,"pD2-value (vasodilatory potency) [1, 4]: approximately 6; Effect on RONS formation, result in words ([2]; in vitro challenge of isolated rat cardiac mitochondria): has also some increasing effect"
~1,697.3,609.8,889.2,CCc1ccc(CCOc2ccc(CC3SC(=O)N(COC(=O)NCCO[N+](=O)[O-])C3=O)cc2)nc1 (stereo not drawn) [compound 1],98.13 ± 5.98,87.22 ± 3.34,79.07 ± 3.82,70.11 ± 3.49,57.49 ± 3.15,43.34 ± 2.88,27.72 ± 2.57,12.82 ± 1.68,2.65 ± 1.49,0,even more active than isosorbide dinitrate,–,–,–,"Effect on RONS formation, result in words [2]: does not have a pronounced effect on RONS formation"
